System: human skin
Experiment: Human skin contact with acidic solution
Conditions: solution with a pH of less than 0.5

O=S(=O)(O)O [sulfuric acid]
irritation or injury of the hand put into the solution: an irritation would occur within a relatively short span of time
